Reference: patent US20080280983A1, “METHODS OF TREATING RETT SYNDROME” (CeNeRx BioPharma, priority 2007, published 2008)
Where two headings read alike, the source gives them in different places.

What was measured:
[1] = test system: pentetrazol-induced convulsions; experiment: Pentetrazol-induced convulsions in rats; format: in vivo, rat; settings: for animals manifesting convulsions: 30 minutes before pentetrazol 80 mg/kg i.p.
Method: The method proposed by Goodman L. S. et al. (J. Pharmacol. Test Ther. 108:168; 1958) was used. […] After 30 minutes, pentylene tetrazol (80 mg/kg i.p.) was administered. The number of animals from each group who manifested at least one convulsion during the 30 minutes after injection was counted. The differences between treatments were statistically analyzed using the chi-square/Fisher exact test.

[2] = test system: bicucullin-induced convulsions; experiment: Bicucullin-induced convulsions in rats; format: in vivo, rat; settings: for protection against convulsions: percent compared with controls; for animals showing convulsions: 1 hour before bicuculline 4.5 mg/kg i.p., FIG. 4
Method: The method described by Curtis D. R. et al. (Brain Res. 34:301; 1971), herein incorporated by reference in its entirety, was used in modified form.
One hour later, bicuculline was administered by intraperitoneal route at a dose of 4.5 mg/kg dissolved in 10 ml/kg NSS. The number of animals manifesting any type of convulsion was then counted. The protection conferred by the treatments was then calculated as percent compared with the controls. The statistical significance of the differences was analyzed using the Yates chi-square test.

[3] = test system: electroshock-induced convulsions; experiment: Electroshock-induced convulsions in rats; format: in vivo, rat; settings: 30 minutes before shock
Method: Male rats were studied using the method described by E. Chojnacka-Wojcik (Pol. J. Pharmacol. Pharm., 35:511-15, 1983), herein incorporated by reference in its entirety.
At 30 minutes after dosing, the animals were given a non-lethal electric shock (50 Hz, 50 mA, impulse train duration 0.2 s via corneal electrodes wetted in normal saline). […] The frequency of tonic and clonic convulsions among the treatment groups was analyzed using the Yates chi-square test .

[4] = test system: strychnine-induced mortality; settings: for type of antagonism of strychnine from slope of dose/mortality line: 100 mg/Kg i.p. pretreatment
Method: Strychnine causes muscular convulsions and eventual death through asphyxia or sheer exhaustion in mammals.
Strychnine was administered i.p., dissolved in normal saline at a constant volume of 10 ml/kg. […] The number of deaths was recorded, starting 15 minutes after administration. Using data on deaths at each dose, the LD50, the 95% confidence intervals, and the line slope S were calculated.

CRH = CRH concentration in hypothalamus and cerebral cortex, foot-shock stress; format: in vivo, rat
From the text: As mentioned above, stress is known to be associated with release of CRH from the hypothalamus and activation of the HPA axis. This is paralleled by changes in the CRH content of different brain regions and alterations in the expression of messenger RNA (mRNA) for CRH.

[5] = test system: isoniazide-induced convulsions; experiment: Isoniazide-induced convulsions in rats; format: in vivo, rat; settings: 1 hour prior to isoniazide 100 mg/kg i.p.
Method: The method of Reilly R. H. et al. (JAMA 152(14):1317; 1953), herein incorporated by reference in its entirety, was used in modified form. […] Both the ED50 and ED84 were calculated. In the second part of the test, the ED84 was administered at different times (0.5-1.0-1.5-2.0-3.0 hours) prior to isoniazide administration for the purpose of determining the duration of action and the curve of kinetic activity. Female rats fasted for 17 hours were used for the test.

rats [6] = experiment: Open field behavior test; format: in vivo, rat
From the text: The open-field behavior test relies on the observation that rats exposed to a novel open environment display behaviors (exploratory ambulation, rearing, and dropping fecal boluses) that are thought to be naturally defensive and anticipatory of potential threats in the environment. Pharmacologic interventions that attenuate these behaviors may have utility in modifying pathologic fear or stress responses in a clinical context.

rats [7] = experiment: Water maze test; format: in vivo, rat; settings: 100 mg/Kg
Method: The water maze test is designed to test the effect of drugs on learning and performance in a task that is performed under a stressful condition. After several trials under control conditions, rats learn to exit the water maze with greater speed and with fewer errors. Performance in this test can be improved by drugs that either reduce stress and/or enhance learning (e.g. muscarinic agonists). On the contrary, drugs that impair learning (e.g. scopolamine) can worsen performance. […] This indicates improved learning and retention.

mice = experiment: Rota-rod test; format: in vivo, mouse; settings: 100 mg/Kg, versus untreated mice, FIG. 8A
From the text: Motor performance can be tested by measuring the length of time an animal can remain on a slowly rotating cylinder, as in the rota-rod test.

aged mice = experiment: Taut thread test; format: in vivo, mouse
Method: In this test, aged mice are required to traverse a thread stretched between two points. Performance is measured by the time taken to reach the end and the number of resting positions adopted during the test.

mouse [8] = settings: intravenous route; cited from earlier work
mouse [9] = settings: cited from earlier work
GABA receptors = settings: cited from earlier work
CRH mRNA = settings: sustained treatment, hypothalamus and cerebral cortex of rats; cited from earlier work
rat = settings: in vivo, ip; cited from earlier work

NCCCC(=O)O [GABA]
anticonvulsant effect ([1]; 50 or 100 mg/kg i.p. (either dose), pentetrazol 80 mg/kg i.p.): no anticonvulsant effect | protection against convulsions ([2]; high dose 200 mg/kg orally): 20% | protection against convulsions ([2]; low dose 100 mg/kg orally): 10%

CCC1(c2ccccc2)C(=O)NC(=O)NC1=O [luminal sodium]
tonic and clonic convulsions in response to electric shock ([3]; luminal sodium 10 mg/Kg i.p.): completely blocked | animals manifesting convulsions ([1]; 10 mg/kg i.p.): None | protection against convulsions ([2]; 20 mg/kg orally): 100%

Cc1ccccc1OCC(O)CO (stereo not drawn) [mephenesine]
type of antagonism of strychnine from slope of dose/mortality line ([4]; mice): competitive antagonism | effect on LD50 of strychnine ([4]; mouse, in vivo): raised the LD50 of strychnine

CC(C)(C)C(=O)NCCCC(=O)O [pivagabine, 4-[(2,2-dimethyl-1-oxopropyl)amino]butanoic acid]
effect on CRH concentration in the cerebral cortex (CRH; pivagabine alone (no foot shock), cerebral cortex): no effect | reduction of CRH concentration in the hypothalamus (CRH; pivagabine alone (no foot shock), hypothalamus): 52% | effects of foot-shock stress on CRH concentration (CRH; subchronic treatment, hypothalamus and cerebral cortex, FIGS. 12A and 12B): prevented the effects of foot-shock stress | number of tonic convulsions in response to electric shock ([3]; 100 or 200 mg/Kg i.p., FIG. 1): significantly reduced | effect on LD50 of strychnine ([4]; 100 mg/Kg i.p. 30 minutes prior to strychnine i.p., mice, FIG. 2): raised the LD50 of strychnine | type of antagonism of strychnine from slope of dose/mortality line ([4]; mice): nonspecific antagonism | animals manifesting convulsions ([1]; 100 mg/kg i.p., p<0.01, FIG. 3): 30% | animals showing convulsions ([2]; 100 mg/kg orally): 4/10 | animals showing convulsions ([2]; 200 mg/kg orally): 1/10 | protection against convulsions ([2]; high dose 200 mg/kg orally): 90% | protection against seizures ([5]; highest dose (oral doses 25-50-100-200 mg/Kg), FIG. 5): 90% | anticonvulsive effect, dose-effect relationship ([5]; oral 25-50-100-200 mg/Kg): dose-related increase | number of rearing movements (rats [6]; 50 and 100 mg/Kg i.p., FIG. 6B): significantly reduced | ambulation, number of sectors explored per unit time (rats [6]; FIG. 6A): significant decrease | defecation, number of fecal boluses produced (rats [6]; FIG. 6C): significant decrease | performance in later sessions (rats [7]; days 4 and 5): tended to be superior to that of controls | time to exit and number of errors made (rats [7]; rats): performed as well as the control group | time remaining on the rotating cylinder (mice): significantly longer | number of resting positions adopted (aged mice; FIG. 9B): significantly less | time taken to traverse the thread (aged mice; versus control mice, FIG. 9A): significantly faster | LD50 (mouse [8]): 1750 mg/kg | anti-depressive and anxiolytic activity (mouse [9]): a certain anti-depressive and anxiolytic activity | binding to GABA receptors (GABA receptors): does not appear to bind to GABA receptors | abundance of CRH mRNA (CRH mRNA): increases the abundance of CRH mRNA | dose up to which no toxic effects were observed (rat): 1000 mg/kg
